Results on three molecules are retold here after US10519211B2, “Compounds as peptidic GLP1/glucagon/GIP receptor agonists” (SANOFI, priority 2016, dated 2019).

Numbered stars: 1 amine (or outer) side, 2 acyl side, 3 side chain; on linkers, the order of the positions; unused ones are H or OH. Square brackets hold non-standard residues; d marks the D form. Side chains are listed from the residue outwards. Peptide text beside a SMILES is read from it. * marks the point of attachment. γGlu = O=C(O)[C@H](CCC(=O)[*:2])N[*:1]; Palmitoyl = CCCCCCCCCCCCCCCC(=O)*; Aib = CC(C)(N)C(=O)O Some results are limits rather than exact numbers.

The nature of series [1]: Thioflavin T (ThT) assay for physical stability (fibrillation). As to conditions: 3 mg/ml, 100 mM acetate pH 4.5 with m-cresol, shaking at 37° C. It is filed as physicochemical. In a few lines:
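Peptide at 3 mg/ml with 100 μM ThT in 100 mM acetate pH 4.5 with m-cresol, stressed at 37° C by cycles of 10 s shaking at 960 rpm and 50 s rest. Fluorescence read every 20 minutes, eight replicates; lag time in hours.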

Series [2] deals with female, diabetic db/db mice. The experiment in a line: Acute effects after subcutaneous treatment on blood glucose in non-fasting diabetic db/db mice. The format is in vivo, mouse. To be noted: for Blood glucose AUC compared to the Diabetic-Vehicle group: 24 h; for Plasma glucose area under the curve (mmol/L in 24 h): once 30 μg/kg s.c., mean ± SEM. The method, then:
Female healthy, lean BKS.Cg-(lean)/OlaHsd and diabetes-prone, obese BKS.Cg-+Lepr^db/+Lepr^db/OlaHsd mice were ordered group housed from Envigo RMS Inc., shipped group housed and remained group housed in shoebox caging with wood chip bedding until day 15 of the predose phase. At the study start mice were approximately 12 weeks old.
Mice were housed under vivarium conditions including a 12 h light/dark cycle (light phase 04:00 AM-4:00 PM), room temperatures between 23-26° C. and a relative humidity between 30-70%. All animals had free access to water and Purina Fomulab Diet 5008.
On predose day 9 blood glucose and body mass (approximately between 08:00-10:00 AM) as well as HbA1c measurements were performed. On day 15 of the predose phase animals were assigned to treatment groups (n=8) and to new cages to match mean HbA1c and body masses between all db/db groups. An age-matched lean group was included in the study as a healthy, lean reference.
Prior to day 1 of the dosing phase, the test article was diluted with Phosphate Buffered Saline (PBS, Gibco, without CaCl2 and MgCl2) to a concentration of 1 mg/mL and aliquots of this stock solution were stored at approximately −60° C. On day 1 of the dosing phase the stock aliquot was thawed and the injected test article solution was prepared fresh by diluting it with PBS to achieve the desired concentration.
On Day 1 of the dosing phase db/db mice were either treated once with a s.c. injection of PBS-vehicle or 30 μg/kg test article. The lean reference group was treated once with a s.c. injection of PBS-vehicle. The dosing was initiated and completed between 08:00 and 10:00 AM. The applied volume was 5 ml/kg and the dose was adjusted to the most recent body mass recording of each individual.
Animals had unlimited access to water and feed during the experiment. On day 1 of the dosing phase approximately 5 μL of blood were collected via tail clips at minute −30 and 0 prior to any other inlife activities. At minute 0 mice received a s.c. dose of either PBS-vehicle or 30 μg/kg test article. Further blood samples were harvested at hour 0.25, 0.5, 1, 1.5, 2, 3, 4, 6, 8, and 24 post-dose. Glucose measurements were performed in whole blood using AlphaTRAK glucometers. If the glucose concentrations of two measurements differed by more than 20 mg/dL a third value was recorded. The Area Under the Curve (AUC) for blood glucose was calculated via the trapezoid method and for the duration of the 24 post-dose hours.
Data are depicted as means±SEM. […] A One-Way ANOVA and Tukey Test were used for pairwise multiple comparisons of all groups (n=8/group, deviations from group size are indicated). […] Data from a Non-Diabetic-Vehicle group serve as a reference dataset for the normoglycemic, lean state.
Female, 12 weeks old, healthy, lean BKS.Cg-(lean)/OlaHsd or diabetes-prone, obese BKS.Cg-+Leprdb/+Leprdb/OlaHsd mice were treated once with a s.c. injection of PBS, 30 μg/kg SEQ ID NO: 6 or 30 μg/kg SEQ ID NO: 7. The dosing was initiated and completed between 08:00 and 10:00 AM. The applied volume was 5 ml/kg and the dose was adjusted to the most recent body mass recording of each individual. Diabetic db/db mice were HbA1c- and body mass-matched. The lean reference group was treated once with a s.c. injection of PBS-vehicle.
Animals had unlimited access to water and feed during the experiment. On day 1 of the dosing phase approximately 5 μL of blood were collected via tail clips at minute −30 and 0 prior to any other inlife activities. At minute 0 mice received a s.c. dose of either PBS-vehicle, 30 μg/kg SEQ ID NO: 6 or SEQ ID NO: 7. Further blood samples were harvested at minute 15, 30, 60, 90, 120, 150, 180, 240, 360, and 480 post-dose. Glucose measurements were performed in whole blood using AlphaTRAK glucometers. If the glucose concentrations of two measurements differed by more than 20 mg/dL a third value was recorded. […]

The nature of series [3]: Chemical stability assessment (UPLC-UV, relative purity loss). The format is physicochemical. As to conditions: 1 mg/ml, 25 mM acetate buffer pH 4.5 with m-cresol (buffer system A). The procedure, abridged: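 Peptide at 1 mg/mL (purity-corrected) in 25 mM acetate pH 4.5 with methionine, m-cresol and glycerol, sterile-filtered, stored 28 days at 40° C. Purity measured by UPLC-UV as peptide peak area fraction at start and after storage; value is relative percent purity loss.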

Where [4] appears, read: 30 μg/kg s.c. once, fed db/db mice.
Where [5] appears, read: 30 μg/kg s.c. once, fed db/db mice, in words.

In the case of `CCCCCCCCCCCCCCCC(=O)N[C@@H](CCC(=O)N[C@@H](CCC(=O)NCCCC[C@H](NC(=O)[C@H](CC(C)C)NC(=O)[C@H](CCCCN)NC(=O)[C@H](CO)NC(=O)[C@H](CC(C)C)NC(=O)[C@H](CC(=O)O)NC(=O)[C@H](CO)NC(=O)[C@@H](NC(=O)[C@H](Cc1ccccc1)NC(=O)[C@@H](NC(=O)CNC(=O)[C@H](CCC(N)=O)NC(=O)C(C)(C)NC(=O)[C@@H](N)Cc1c[nH]cn1)[C@@H](C)O)[C@@H](C)O)C(=O)N[C@@H](CCC(=O)O)C(=O)N[C@@H](CCCCN)C(=O)N[C@@H](CCC(N)=O)C(=O)N[C@@H](CCCNC(=N)N)C(=O)N[C@@H](CCC(N)=O)C(=O)NC(C)(C)C(=O)N[C@@H](CCC(=O)O)C(=O)N[C@@H](Cc1ccccc1)C(=O)N[C@H](C(=O)N[C@@H](CCC(=O)O)C(=O)N[C@@H](Cc1c[nH]c2ccccc12)C(=O)N[C@@H](CC(C)C)C(=O)N[C@@H](CCCCN)C(=O)N[C@@H](C)C(=O)NCC(=O)NCC(=O)N1CCC[C@H]1C(=O)N1CCC[C@H]1C(=O)N[C@@H](CO)C(=O)NC(C)(C)C(=O)N[C@@H](CCCCN)C(=O)N1CCC[C@H]1C(=O)N1CCC[C@H]1C(=O)N1CCC[C@H]1C(=O)N[C@@H](CCCCN)C(N)=O)[C@@H](C)CC)C(=O)O)C(=O)O` [SEQ ID NO: 6, H-Aib-Q-G-T-F-T-S-D-L-S-K-L-K[gGlu-gGlu-Palm]-E-K-Q-R-Q-Aib-E-F-I-E-W-L-K-A-G-G-P-P-S-Aib-K-P-P-P-K-NH2], the “Lag time before increase” value in series [1] was above 45 h. The “Blood glucose AUC compared to the Diabetic-Vehicle group” value in series [2] (30 μg/kg s.c. once, in words) is on record as “statistically significant reduction in the blood glucose AUC”. Besides, the “Time post dose at which lowest blood glucose levels were reached” value (“Time post dose” below) in series [2] (setting [4]) is on record as “approximately 8 hours”. For the same molecule, the “Blood glucose profile following single treatment” value in series [2] (setting [5]) is reported as “acute decrease in blood glucose concentrations”. Also, in series [2] (Table 10, fed db/db mice), the “Plasma glucose area under the curve (mmol/L in 24 h)” value (from here on “Plasma glucose area under the curve”) is given as “+430.70 ± 26.41 mmol/L in 24 h”. Further, the “Chemical stability [relative purity loss 28 days 40° C.] (%) at pH 4.5” value in series [3] is listed as 6.9%.
As to `CCCCCCCCCCCCCCCC(=O)N[C@@H](CCC(=O)N[C@@H](CCC(=O)NCCCC[C@H](NC(=O)[C@H](CC(C)C)NC(=O)[C@H](CCCCN)NC(=O)[C@H](CO)NC(=O)[C@H](CC(C)C)NC(=O)[C@H](CC(=O)O)NC(=O)[C@H](CO)NC(=O)[C@@H](NC(=O)[C@H](Cc1ccccc1)NC(=O)[C@@H](NC(=O)CNC(=O)[C@H](CCC(N)=O)NC(=O)C(C)(C)NC(=O)[C@@H](N)Cc1c[nH]cn1)[C@@H](C)O)[C@@H](C)O)C(=O)N[C@@H](CCC(=O)O)C(=O)N[C@@H](CCCCN)C(=O)N[C@@H](CCC(N)=O)C(=O)N[C@@H](CCCNC(=N)N)C(=O)N[C@@H](CCC(N)=O)C(=O)NC(C)(C)C(=O)N[C@@H](CCC(=O)O)C(=O)N[C@@H](Cc1ccccc1)C(=O)N[C@H](C(=O)N[C@@H](CCC(=O)O)C(=O)N[C@@H](Cc1c[nH]c2ccccc12)C(=O)N[C@@H](CC(C)C)C(=O)N[C@@H](CCCCN)C(=O)N[C@@H](C)C(=O)N[C@H](C)C(=O)NCC(=O)N1CCC[C@H]1C(=O)N1CCC[C@H]1C(=O)N[C@@H](CO)C(=O)NC(C)(C)C(=O)N[C@@H](CCCCN)C(=O)N1CCC[C@H]1C(=O)N1CCC[C@H]1C(=O)N1CCC[C@H]1C(=O)N[C@@H](CCCCN)C(N)=O)[C@@H](C)CC)C(=O)O)C(=O)O` [SEQ ID NO: 7, H-Aib-Q-G-T-F-T-S-D-L-S-K-L-K[gGlu-gGlu-Palm]-E-K-Q-R-Q-Aib-E-F-I-E-W-L-K-A-dAla-G-P-P-S-Aib-K-P-P-P-K-NH2] (H-H[Aib]QGTFTSDLSKLK([γGlu-γGlu-Palmitoyl])EKQRQ[Aib]EFIEWLKA[dA]GPPS[Aib]KPPPK-NH2), the “Lag time before increase” value in series [1] was above 45 h. For the same molecule, the “Blood glucose AUC compared to the Diabetic-Vehicle group” value in series [2] (30 μg/kg s.c. once, in words) is “statistically significant reduction in the blood glucose AUC”. For the same molecule, in series [2] (setting [4]), the “Time post dose” value is “approximately 8 hours”. Also, in series [2] (setting [5]), the “Blood glucose profile following single treatment” value is given as “acute decrease in blood glucose concentrations”. In addition, in series [2] (Table 10, fed db/db mice), the “Plasma glucose area under the curve” value is listed as “+461.54 ± 39.43 mmol/L in 24 h”. Besides, the “Chemical stability [relative purity loss 28 days 40° C.] (%) at pH 4.5” value in series [3] is on record as 6.8%.
As for `CCCCCCCCCCCCCCCC(=O)N[C@@H](CCC(=O)N[C@@H](CCC(=O)NCCCC[C@H](NC(=O)[C@H](CC(C)C)NC(=O)[C@H](CCCCN)NC(=O)[C@H](CO)NC(=O)[C@H](CC(C)C)NC(=O)[C@H](CC(=O)O)NC(=O)[C@H](CO)NC(=O)[C@@H](NC(=O)[C@H](Cc1ccccc1)NC(=O)[C@@H](NC(=O)CNC(=O)[C@H](CCC(N)=O)NC(=O)C(C)(C)NC(=O)[C@@H](N)Cc1c[nH]cn1)[C@@H](C)O)[C@@H](C)O)C(=O)N[C@@H](CCC(=O)O)C(=O)N[C@@H](CCCCN)C(=O)N[C@@H](CCC(N)=O)C(=O)N[C@@H](CCCNC(=N)N)C(=O)N[C@@H](CCC(N)=O)C(=O)NC(C)(C)C(=O)N[C@@H](CCC(=O)O)C(=O)N[C@@H](Cc1ccccc1)C(=O)N[C@H](C(=O)N[C@@H](CCC(=O)O)C(=O)N[C@@H](Cc1c[nH]c2ccccc12)C(=O)N[C@@H](CC(C)C)C(=O)N[C@@H](CCCCN)C(=O)N[C@@H](C)C(=O)N[C@H](C)C(=O)NCC(=O)N[C@@H](Cc1c[nH]cn1)C(=O)N1CCC[C@H]1C(=O)N[C@@H](CO)C(=O)NC(C)(C)C(=O)N[C@@H](CCCCN)C(=O)N1CCC[C@H]1C(=O)N1CCC[C@H]1C(=O)N1CCC[C@H]1C(=O)N[C@@H](CCCCN)C(N)=O)[C@@H](C)CC)C(=O)O)C(=O)O` [SEQ ID NO: 13, H-Aib-Q-G-T-F-T-S-D-L-S-K-L-K[gGlu-gGlu-Palm]-E-K-Q-R-Q-Aib-E-F-I-E-W-L-K-A-dAla-G-H-P-S-Aib-K-P-P-P-K-NH2] (H-H[Aib]QGTFTSDLSKLK([γGlu-γGlu-Palmitoyl])EKQRQ[Aib]EFIEWLKA[dA]GHPS[Aib]KPPPK-NH2), the “Lag time before increase” value in series [1] is above 45 h. Besides, the “Blood glucose AUC compared to the Diabetic-Vehicle group” value in series [2] (30 μg/kg s.c. once, in words) was “statistically significant reduction in the blood glucose AUC”. The “Time post dose” value in series [2] (setting [4]) is recorded as “approximately 8 hours”. Further, in series [2] (setting [5]), the “Blood glucose profile following single treatment” value is “acute decrease in blood glucose concentrations” and the “Mean blood glucose concentrations twenty four hours post-dose” value is “close to baseline”. Besides, the “Plasma glucose area under the curve” value in series [2] (Table 12, fed db/db mice) is “+458.34 ± 27.11 mmol/L in 24 h”. Besides, in series [3], the “Chemical stability [relative purity loss 28 days 40° C.] (%) at pH 4.5” value is listed as 4.5%.
